Data as given in PubChem BioAssay AID1963967 (Molecular Pharmacology Branch, DTP, NCI, 2024).

Test system: 855422-203-R-J1-PDC spheroids with HUVEC/MSC, viability
Test: Anticancer human tumor 855422-203-R-J1-PDC patient-derived bladder carcinoma cell line growth inhibition [PI3K]
Details: for IC50: curve of first compound; for viability, T/C: stronger effect = lower value
How it was run: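 Tumor cells grown as multi-cell spheroids with HUVEC endothelial cells and MSC fibroblast-like stroma were treated with targeted agents combined with inavolisib, alpelisib, duvelisib or copanlisib. Doses fell in half-log steps from near clinical Cmax, else from 10 microM. Viability was measured.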

[1] = second compound 0.0316 µM, first compound 0.0316 µM
[2] = second compound 0.0316 µM, first compound 0.1 µM
[3] = second compound 0.0316 µM, first compound 0.316 µM
[4] = second compound 0.0316 µM, first compound 1 µM
[5] = second compound 0.0316 µM, first compound 3.16 µM
[6] = second compound 0.0316 µM, first compound 10 µM
[7] = second compound 0.1 µM, first compound 0.0316 µM
[8] = second compound 0.1 µM, first compound 0.1 µM
[9] = second compound 0.1 µM, first compound 0.316 µM
[10] = second compound 0.1 µM, first compound 1 µM
[11] = second compound 0.1 µM, first compound 3.16 µM
[12] = second compound 0.1 µM, first compound 10 µM
[13] = second compound 0.316 µM, first compound 0.0316 µM
[14] = second compound 0.316 µM, first compound 0.1 µM
[15] = second compound 0.316 µM, first compound 0.316 µM
[16] = second compound 0.316 µM, first compound 1 µM
[17] = second compound 0.316 µM, first compound 3.16 µM
[18] = second compound 0.316 µM, first compound 10 µM
[19] = second compound 1 µM, first compound 0.0316 µM
[20] = second compound 1 µM, first compound 0.1 µM
[21] = second compound 1 µM, first compound 0.316 µM
[22] = second compound 1 µM, first compound 1 µM
[23] = second compound 1 µM, first compound 3.16 µM
[24] = second compound 1 µM, first compound 10 µM
[25] = second compound 3.16 µM, first compound 0.0316 µM
[26] = second compound 3.16 µM, first compound 0.1 µM
[27] = second compound 3.16 µM, first compound 0.316 µM
[28] = second compound 3.16 µM, first compound 1 µM
[29] = second compound 3.16 µM, first compound 3.16 µM
[30] = second compound 3.16 µM, first compound 10 µM
[31] = second compound 10 µM, first compound 0.0316 µM
[32] = second compound 10 µM, first compound 0.1 µM
[33] = second compound 10 µM, first compound 0.316 µM
[34] = second compound 10 µM, first compound 1 µM
[35] = second compound 10 µM, first compound 3.16 µM
[36] = second compound 10 µM, first compound 10 µM
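Further: agents incubated with spheroids for one week before read-out.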
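Wherever viability, T/C is given: 100% = DMSO vehicle-treated control wells.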

In the case of `C=CC(=O)N1CCN(c2nc(=O)n(-c3c(C)ccnc3C(C)C)c3nc(-c4c(O)cccc4F)c(F)cc23)C(C)C1` (centres undefined) + Cc1nc(NC(=O)N2CCCC2C(N)=O)sc1-c1ccnc(C(C)(C)C(F)(F)F)c1, the IC50 (second compound 0.0316 µM) is reported as greater than 10 µM, the IC50 (second compound 0.1 µM) is reported as greater than 10 µM and the IC50 (second compound 0.316 µM) is reported as greater than 10 µM. It also gave an IC50 (second compound 1 µM) greater than 10 µM, an IC50 (second compound 3.16 µM) of less than 0.0316 µM and an IC50 (second compound 10 µM) of less than 0.0316 µM. The viability, T/C [1] was 111%, the viability, T/C [2] was 87.8% and the viability, T/C [3] was 119%. It also gave a viability, T/C [4] of 104%, a viability, T/C [5] of 109% and a viability, T/C [6] of 128%. It also gave a viability, T/C [7] of 108%, a viability, T/C [8] of 86.8% and a viability, T/C [9] of 106%. The viability, T/C [10] was 103%, the viability, T/C [11] was 117% and the viability, T/C [12] was 114%. For the same molecule, the viability, T/C [13] was 94.7%, the viability, T/C [14] was 87.3% and the viability, T/C [15] was 104%. For the same molecule, the viability, T/C [16] was 99.5%, the viability, T/C [17] was 117% and the viability, T/C [18] was 109%. The viability, T/C [19] was 75.9%, the viability, T/C [20] was 76.1% and the viability, T/C [21] was 82.6%. It also gave a viability, T/C [22] of 92.5%, a viability, T/C [23] of 101% and a viability, T/C [24] of 97.4%. The viability, T/C [25] was 50.6%, the viability, T/C [26] was 50.9% and the viability, T/C [27] was 58.5%. It also gave a viability, T/C [28] of 64%, a viability, T/C [29] of 80.4% and a viability, T/C [30] of 67.9%. The viability, T/C [31] was 26.9%, the viability, T/C [32] was 27.1% and the viability, T/C [33] was 31.5%. The viability, T/C [34] was 37.2%, the viability, T/C [35] was 41.2% and the viability, T/C [36] was 34.2%.

For `CC1(C)CCC(CN2CCN(c3ccc(C(=O)NS(=O)(=O)c4ccc(NCC5CCOCC5)c([N+](=O)[O-])c4)c(Oc4cnc5[nH]ccc5c4)c3)CC2)=C(c2ccc(Cl)cc2)C1` + Cc1nc(NC(=O)N2CCCC2C(N)=O)sc1-c1ccnc(C(C)(C)C(F)(F)F)c1, the IC50 (second compound 0.0316 µM) was 4.57 µM, the IC50 (second compound 0.1 µM) was 4.94 µM and the IC50 (second compound 0.316 µM) was 5.26 µM. For the same molecule, the IC50 (second compound 1 µM) was 4.58 µM, the IC50 (second compound 3.16 µM) was less than 0.0316 µM and the IC50 (second compound 10 µM) was less than 0.0316 µM. The viability, T/C [1] was 105%, the viability, T/C [2] was 89.9% and the viability, T/C [3] was 112%. It also gave a viability, T/C [4] of 100%, a viability, T/C [5] of 72.8% and a viability, T/C [6] of 1.55%. It also gave a viability, T/C [7] of 99.8%, a viability, T/C [8] of 87.4% and a viability, T/C [9] of 101%. It also gave a viability, T/C [10] of 102%, a viability, T/C [11] of 80.6% and a viability, T/C [12] of 1.52%. The viability, T/C [13] was 89.8%, the viability, T/C [14] was 91.8% and the viability, T/C [15] was 95.3%. For the same molecule, the viability, T/C [16] was 92.1%, the viability, T/C [17] was 88.6% and the viability, T/C [18] was 1.39%. The viability, T/C [19] was 76.8%, the viability, T/C [20] was 77% and the viability, T/C [21] was 69.5%. For the same molecule, the viability, T/C [22] was 81%, the viability, T/C [23] was 73.3% and the viability, T/C [24] was 0.91%. For the same molecule, the viability, T/C [25] was 47.7%, the viability, T/C [26] was 45.5% and the viability, T/C [27] was 42.7%. The viability, T/C [28] was 49%, the viability, T/C [29] was 47% and the viability, T/C [30] was 0.59%. It also gave a viability, T/C [31] of 25.8%, a viability, T/C [32] of 23.5% and a viability, T/C [33] of 25.7%. For the same molecule, the viability, T/C [34] was 29.4%, the viability, T/C [35] was 24.7% and the viability, T/C [36] was 0.6%.
